Source: paper PMC9324262, “Selective CDK9 Inhibition by Natural Compound Toyocamycin in Cancer Cells” (Cancers, 2022)

Columns and labels:
[1] = system: HCT116 cells; experiment: cell cycle analysis by flow cytometry; assay type: cell-based, human
Method: For cell cycle analysis, cells were cultured in T25 flasks, trypsinized, and washed with PBS. Then, 1 × 10^6 cells were fixed in 100% cold ethanol overnight at −20 °C. Cells were then washed with PBS and treated with 100 μg/mL RNase A (Invitrogen, Waltham, MA USA) for 20 min, at 37 °C. DNA was stained with 5 μg/mL propidium iodide (Sigma, St. Louis, MO, USA). The cell cycle was analyzed by flow cytometry using a Guava® easyCyte HT System (Millipore) with GuavaSoft 3.2 software.

[2] = system: YB5 cells; experiment: RNA sequencing, differential gene expression; assay type: cell-based, human
Method: Sequenced reads were aligned to the GRCh38.100 reference genome using STAR version 2.7.5a and gene-level counts were generated by setting the “quantMode GeneCounts” flag. Differential expression analysis was performed using EdgeR version 3.32.1.. The “filterByExpr” function in EdgeR was then used to determine genes with sufficiently large counts to be included in downstream differential expression testing. The filtered count matrix was then normalized using TMM normalization and differential expression testing was performed using the “glmTreat” function with the minimal required fold-change threshold set to “log2(1)” for significant differential gene expression (FDR < 0.1).

[3] = biological target: T1, CDK7/Cyclin H/MAT1 (Homo sapiens, UniProt P50613); experiment: in vitro kinase assay CDK7/Cyclin H/MAT1 (ADP-Glo); assay type: biochemical
T1 construct: purchased BPS Bioscience
Method: The in vitro enzymatic assays were conducted at BPS Bioscience. CDK9/Cyclin T1, CDK2/Cyclin 2A, CDK4/Cyclin D3, and CDK6/Cyclin D3 enzymatic activities were tested with an ATP Kinase-Glo Plus Luminescence kinase assay kit (Promega, V6073, Madison, WI, USA), while the CDK7/Cyclin H/MAT1 activities were tested using ADP-Glo Kinase (Promega, V6930). These assays measure kinase activity by quantifying the amount of ATP or ADP remaining in solution following a kinase reaction. The luminescent signal from the assay is correlated to the amount of ATP or ADP present and is inversely correlated to the kinase activity. The compounds were diluted to 10% DMSO and were added to the reaction so that the final concentration of DMSO was 1% in all reactions. All enzymatic reactions were conducted at 30 °C for 60 min. […] After the enzymatic reaction, the luminescence signal was measured using a BioTek Synergy 2 microplate reader (Agilent, Santa Clara, CA, USA). Kinase activity assays were performed in duplicate at each concentration and the percent of kinase activity was calculated as a ratio of luminescence intensities in the absence or in presence of the compounds. […] IC50 values were determined by the concentration causing a half-maximal percent activity (BPS Bioscience, San Diego, CA, USA).

[4] = cell viability by Viacount, HCT116; assay type: cell-based; conditions: human, HCT116 colon cancer cells; 24 and 72 h, 50 nM to 50 µM, highest doses; read-out: cell viability relative to untreated cells
Method: Cell viability was measured in YB5 and HCT166 cells using Viacount (Luminex, Austin, TX, USA, 4000-0040) on a Guava flow cytometer (Millipore, Burlington, MA, USA). Colon cancer cells were grown in 96-well plates in the same conditions as in the drug screen and treated with toyocamycin and known CDK9 inhibitor BAY1251152 (Selleckchem, Houston, TX, USA). Cell culture media of each well was collected to harvest floating dead cells and kept aside for later. Cells were trypsinized (0.25% trypsin, Gibco, Waltham, MA, USA) for 5 min at 37 °C. Cell culture media of each well was added back to their corresponding wells to stop trypsinization and mixed thoroughly to obtain a single cell suspension. Viacount solution (Luminex, Austin, TX, USA, 4000-0040, 25 μL) was added to each well, and incubated (5 min at room temperature, in the dark) prior to cell viability analysis on the Guava flow cytometer.

[5] = system: histone 3 and histone 4; experiment: histone acetylation by mass spectrometry; assay type: cell-based, human; conditions: eleven lysine residues, YB5 cells
Method: As described previously, histone proteins were acid-extracted (0.2 N HCl) for 16 h. Histone acetylation levels were quantified on histone 3 and histone 4 by a Thermo TSQ Quantum Access triple quadrupole (QqQ) mass spectrometer (Thermofisher Scientific, Waltham, MA, USA).

[6] = 6 h treatment followed by 18 h without exposure

T1 sequence (P50613 whole entry): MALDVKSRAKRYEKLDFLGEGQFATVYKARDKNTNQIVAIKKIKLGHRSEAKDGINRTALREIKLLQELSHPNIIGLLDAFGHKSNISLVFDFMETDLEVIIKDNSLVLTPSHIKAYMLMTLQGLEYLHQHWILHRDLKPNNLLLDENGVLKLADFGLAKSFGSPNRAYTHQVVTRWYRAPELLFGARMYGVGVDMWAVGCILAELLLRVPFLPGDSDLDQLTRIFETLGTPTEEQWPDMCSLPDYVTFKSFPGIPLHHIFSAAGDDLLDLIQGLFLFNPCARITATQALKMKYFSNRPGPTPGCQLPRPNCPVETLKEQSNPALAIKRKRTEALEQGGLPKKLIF
T1 sequence (P51946 whole entry partner): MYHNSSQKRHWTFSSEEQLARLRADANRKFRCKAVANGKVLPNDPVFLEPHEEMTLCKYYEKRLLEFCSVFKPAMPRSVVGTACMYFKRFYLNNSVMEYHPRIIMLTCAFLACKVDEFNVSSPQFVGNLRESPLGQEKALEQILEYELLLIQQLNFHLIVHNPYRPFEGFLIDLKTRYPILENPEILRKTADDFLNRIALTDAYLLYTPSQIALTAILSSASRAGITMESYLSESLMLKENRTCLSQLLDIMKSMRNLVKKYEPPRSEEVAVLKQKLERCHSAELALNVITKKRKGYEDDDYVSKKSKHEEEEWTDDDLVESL
T1 sequence (P51948 whole entry partner): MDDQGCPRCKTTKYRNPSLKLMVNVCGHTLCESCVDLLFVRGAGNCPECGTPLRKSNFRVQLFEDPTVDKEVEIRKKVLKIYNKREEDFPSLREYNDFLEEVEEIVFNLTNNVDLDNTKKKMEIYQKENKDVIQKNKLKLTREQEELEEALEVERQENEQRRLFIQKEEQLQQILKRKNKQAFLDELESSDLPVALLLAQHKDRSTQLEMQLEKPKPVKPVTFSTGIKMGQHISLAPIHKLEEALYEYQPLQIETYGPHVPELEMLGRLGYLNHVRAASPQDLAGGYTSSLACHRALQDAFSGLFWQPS

N#Cc1cn([C@@H]2O[C@H](CO)[C@@H](O)[C@H]2O)c2ncnc(N)c12 [toyocamycin, 7-Deaza-7-cyanoadenosine]
apoptotic cells [1, 6]: 10%
cell cycle [1, 6]: not significantly impacted
cell cycle ([1]; 24 h treatment, 500–1000 nM): significantly blocked the cell cycle
gene downregulation ([2]; 250 nM, 2 h): 3.5%
number of genes downregulated ([2]; 250 nM, 2 h): 513 genes
number of genes upregulated ([2]; 250 nM, 2 h): 24 genes
number of genes downregulated ([2]; 250 nM, 10 h): 2299 genes
number of genes upregulated ([2]; 250 nM, 10 h): 1999 genes
level of differentially expressed genes ([2]; 250 nM, 10 h to 96 h): up to 60%
number of genes downregulated ([2]; 250 nM, 24 h): 3651 genes
number of genes upregulated ([2]; 250 nM, 24 h): 3387 genes
number of genes downregulated ([2]; 250 nM, 48 h): 4377 genes
number of genes upregulated ([2]; 250 nM, 48 h): 4449 genes
number of genes downregulated ([2]; 250 nM, 96 h): 5061 genes
number of genes upregulated ([2]; 250 nM, 96 h): 5050 genes
endogenous retrovirus (ERV) expression ([2]; 24 h treatment): induced significant ERV expression
IC50 [3]: 2800 nM
times less enzymatic inhibition of CDK7 as compared to CDK9 ([3]; CDK7/Cyclin H/MAT1 vs CDK9/CycT1): 35 times
viability [4]: > 50%
histone 3 and 4 lysine acetylation levels [5]: did not modify lysine acetylation levels
